Test results reported in patent publication US11098006B2, “Lipids and complexes for the delivery of biologically-active material to cells” (RYBOQUIN COMPANY LTD, priority 2016, dated 2021).
Blank lines part the entries; values can stand above or below the compound they belong to.

Key:
COS.7 cells = conditions: cited from earlier work
many cell types = conditions: cited from earlier work
[1] = cited from earlier work
[2] = Transmission electron microscope imaging of LPD particles; type: physicochemical; conditions: peptide ME27; weight ratio 0.75:4:1 (L:P:D); FIG. 5 and FIG. 6
Source text: Transmission Electon Microscope images of LPD particles comprising FMM30 with peptide ME27 at a weight ratio of 0.75:4:1 (L:P:D) is shown in FIG. 5 (FMM30-PD-0.75) and lipids FMM30/DOPE at the same weight ratio is shown in FIG. 6 (FMM30/DOPE-PD 0.75).

[3] = tested on: NIH3T3 murine fibroblasts; assay: In vitro transfection with LPD formulations, luciferase reporter assay; type: cell-based; conditions: NIH3T3 cells; LPD with peptide ME27 and plasmid pCI-Luc; FIG. 1
Protocol: (§1) Cells tested included 1HAEo-human airway epithelial cells, NIH3T3 murine fibroblasts, and Neuro2A murine neuroblastoma cells. Cells were seeded into 96-well plates at approximately 2×10^4 cells per well, then incubated overnight at 37° C. in complete growth medium. The following day, lipopolyplex (LPD) formulations were prepared essentially as described previously (Hart et al., 1998), by mixing the components in the following order: 50 μl of lipid (L) at 80 μg/ml in OptiMEM, 70 μl of peptide (P) at 110 μg/ml in OptiMEM and 50 μl of plasmid pCI-Luc (D) at 40 μg/ml in OptiMEM corresponding to a weight ratio of 2:4:1, respectively. […] The cells were incubated with the complexes for 4 h at 37° C. before replacing with fresh media for 24 h, after which reporter gene expression was analyzed by luciferase assay (Promega, Madison, Wis., USA). […]
(§2) Cells were washed once with PBS before the addition of 20 μl of 1× Reporter Lysis Buffer (Promega, Madison, Wis., USA) to the cells for 20 min at 4° C. before freezing at −80° C. for at least 30 min, followed by thawing at room temperature. Then the luciferase activity was measured during 10 seconds using the Luciferase Assay System (Promega, Madison, Wis., USA) and an Optima Fluostar plate reader (BMG Labtech). […] In vitro luciferase activity was expressed as Relative Light Units (RLU) per milligram of protein (RLU/mg).

[4] = Size of LPD nanoparticles by dynamic light scattering; type: physicochemical; conditions: peptide ME27; weight ratio 0.75:4:1 (L:P:D); FIG. 7
Protocol: The size of LPD nanoparticles containing peptides ME27 with lipids FMM30 or FMM30/DPE were determined at different weight ratios of liposome to DNA (w/w) by dynamic light scattering using a NanoZS Zetasizer (Malvern).

[5] = tested on: 1HAEo- human airway epithelial cells; assay: In vitro transfection with LPD formulations, luciferase reporter assay; type: cell-based; conditions: 1HAEo- cells; LPD with peptide ME27 and plasmid pCI-Luc; FIG. 2
Protocol: as §1, §2

Structure (SMILES): CCCCCCCCCCCCCCOCC(C[N+](C)(C)CCO)OCCCCCCCCCCCCCC.[Br-] (stereo not drawn) [DMRIE 7]
transfection activity of hydroxyalkyl cytofectins (COS.7 cells; compared with DOTMA 1): one of the more efficient lipids

Structure (SMILES): CCCCCCCC/C=C\CCCCCCCCOCC(C[N+](C)(C)CCO)OCCCCCCCC/C=C\CCCCCCCC.[Br-] (stereo not drawn) [DORIE 6]
transfection efficacies in COS.7 cells (COS.7 cells; co-formulation with helper lipid DOPE 2, compared to lipids with hydroxypropyl-hydroxypentyl groups): higher transfection efficacies

Structure (SMILES): CCCCCCCC/C=C\CCCCCCCC(=O)OCC(C[N+](C)(C)C)OC(=O)CCCCCCC/C=C\CCCCCCCC (stereo not drawn) [DOTAP 4]
levels of transfection in vitro (many cell types): comparable levels of transfection

Structure (SMILES): CCCCCCCC/C=C\CCCCCCCCOCC(C[N+](C)(C)C)OCCCCCCCC/C=C\CCCCCCCC.[Cl-] (stereo not drawn) [DOTMA 1]
levels of transfection in vitro (many cell types): comparable levels of transfection | transfection activities in vivo [1]: exhibited higher transfection activities

transfection levels [3]: far higher than the bi-chain lipid CH300 | size of LPD nanoparticles [4]: approximately 80 nm
Structure (SMILES): CCCCCCCC/C=C\CCCCCCCCOCC(C[N+](C)(C)CCOCCOCCOCCOC(=O)CCCCCCC/C=C\CCCCCCCC)OCCCCCCCC/C=C\CCCCCCCC (stereo not drawn) [FMM30, (9Z)—N-(2,3-bis((9Z)-octadecenyloxy)propyl)-N,N-dimethyl-13-oxo-3,6,9,12-tetraoxatriacont-21-en-1-aminium bromide]
particle size and shape in TEM images [2]: quite similar sizes with a combination of shapes including rods and spheres | transfection levels [5]: far higher than the bi-chain lipid CH300
